The target of experiment [1] is SpCas9 (Streptococcus pyogenes serotype M1, UniProt Q99ZW2). Briefly: mKate2 expression (knockdown/disruption) assay. In kind it is cell-based. To be noted: read-out: inhibition activity in mKate2 disruption assay. As to the method: Where σ1 and σ2 are the standard deviations of DN66 transfected wells and (DN66+DN78) transfected wells respectively. μ1 and μ2 are the mean % GFP− cell population for DN66 transfected wells and (DN66+DN78) transfected wells respectively. mKate2 expression assay. Approximately 8,000 cells/well were plated in a 96-well format 24 h before transiently transfected with 100 ng of either CgRNA (Addgene Plasmid #64955) or T1 gRNA (Addgene Plasmid #62717) plasmids using Lipofectamine™ 2000 (Life Technologies™). Transfected cells were allowed to grow in the indicated amount of compound or DMSO for 24 h. Cells were then fixed using 4% paraformaldehyde and imaged with the HCS NuclearMask™ Blue Stain (Life Technologies™) as the nuclear counter-staining agent. […] Images were analyzed in the MetaXpress® software to determine the % mKate2 positive cells and the % NHEJ was calculated following a reported protocol and plotted using GraphPad Prism 6. The Z′-value was calculated following the formula:
mKate2 expression assay. […] Images were analyzed in the MetaXpress® software to determine the % mKate2 positive cells and the % NHEJ was calculated following a reported protocol and plotted using GraphPad Prism 6. The Z′-value was calculated following the formula: […]

For experiment [2], the target named is T1, SpCas9:gRNA ribonucleoprotein complex (Streptococcus pyogenes serotype M1, UniProt Q99ZW2).
T1 construct: His6 (N, cleaved yes); made in house; host or cells: E. coli BL21 Star (DE3)
T1 sequence (Q99ZW2 whole entry, one chain of several): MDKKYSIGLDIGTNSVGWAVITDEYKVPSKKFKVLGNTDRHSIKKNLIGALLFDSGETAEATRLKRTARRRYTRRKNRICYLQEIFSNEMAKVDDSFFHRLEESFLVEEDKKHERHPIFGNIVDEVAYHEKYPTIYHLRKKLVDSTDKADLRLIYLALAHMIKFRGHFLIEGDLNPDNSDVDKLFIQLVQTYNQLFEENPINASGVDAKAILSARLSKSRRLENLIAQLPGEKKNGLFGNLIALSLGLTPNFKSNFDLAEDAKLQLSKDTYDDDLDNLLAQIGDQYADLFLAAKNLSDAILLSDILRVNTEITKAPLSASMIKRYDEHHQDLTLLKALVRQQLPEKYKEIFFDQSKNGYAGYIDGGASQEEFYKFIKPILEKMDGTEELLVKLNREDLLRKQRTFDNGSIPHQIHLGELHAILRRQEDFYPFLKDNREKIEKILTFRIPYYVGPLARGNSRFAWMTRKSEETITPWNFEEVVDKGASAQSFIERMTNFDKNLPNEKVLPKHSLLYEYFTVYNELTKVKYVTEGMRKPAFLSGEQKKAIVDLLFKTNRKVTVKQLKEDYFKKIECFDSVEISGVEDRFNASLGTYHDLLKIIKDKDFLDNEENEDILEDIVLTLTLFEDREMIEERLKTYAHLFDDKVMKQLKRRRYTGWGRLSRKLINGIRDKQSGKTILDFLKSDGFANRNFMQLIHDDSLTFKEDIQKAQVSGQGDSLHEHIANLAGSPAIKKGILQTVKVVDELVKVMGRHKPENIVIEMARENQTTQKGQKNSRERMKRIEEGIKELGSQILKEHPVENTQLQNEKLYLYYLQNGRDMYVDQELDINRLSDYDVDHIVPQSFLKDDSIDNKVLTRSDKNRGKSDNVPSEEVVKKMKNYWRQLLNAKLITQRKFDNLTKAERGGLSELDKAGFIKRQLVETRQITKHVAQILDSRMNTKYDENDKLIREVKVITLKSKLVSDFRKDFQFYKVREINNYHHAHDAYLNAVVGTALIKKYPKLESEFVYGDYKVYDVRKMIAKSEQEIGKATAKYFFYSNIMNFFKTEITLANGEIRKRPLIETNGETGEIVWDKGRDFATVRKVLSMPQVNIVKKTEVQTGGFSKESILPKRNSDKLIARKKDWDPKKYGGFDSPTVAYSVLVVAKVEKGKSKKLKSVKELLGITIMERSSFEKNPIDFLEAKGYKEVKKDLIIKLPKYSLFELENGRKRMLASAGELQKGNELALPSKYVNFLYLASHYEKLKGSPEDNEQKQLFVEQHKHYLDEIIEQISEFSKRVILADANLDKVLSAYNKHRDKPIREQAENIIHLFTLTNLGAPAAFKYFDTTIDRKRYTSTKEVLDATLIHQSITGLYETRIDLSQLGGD
Briefly: 19F NMR binding assay. To be noted: [Ligand] 50 μM. On the procedure: (§1) NMR binding assay. All samples were prepared with 50 μM BRD7087 in 20 mM Tris buffer (pH=7.4) with varying concentrations of SpCas9:gRNA in a 3 mm NMR tube. Experiments were performed on a 600 MHz (19F: 564.71 MHz) BRUKER Avance™ III NMR spectrometer equipped with a 5 mm QCI-F CryoProbe™ and a SampleJet for automated sample handling. To acquire spectra, a standard one-pulse 19F experiment with WALTZ-16 for proton decoupling during acquisition, a 5 second recycle delay, and 256 scans was used. All spectra were recorded at 280 K. NMR data were apodized with a 1 Hz exponential function prior to Fourier transformation. All spectra were baseline corrected; peak widths and intensities were extracted using the automated line-fitting feature provided with the MNova software package. Determination of the value of Kd was accomplished using least squares fitting to the expression given in Equation 8 in the paper by Shortridge et al.2.
Kd values obtained by NMR rely on the assumption that ligand binding is in fast-exchange, which typically holds true for ligands with Kd in the 0.5 μM to 20 mM range.
as §1, with “(^19F:” for “(19F:”, “^19F” for “19F”, “al.^2.” for “al.2.”

SMILES strings stand for the structures.

Sequence of SpCas9 (Q99ZW2 whole entry): as the sequence (Q99ZW2 whole entry, one chain of several) above

Consider `OC[C@H]1Nc2ccc(-c3cccc(F)c3)cc2[C@H]2[C@@H]1CCN2Cc1ccncc1` [BRD7087, ((3aR,4S,9bR)-8-(3-Fluorophenyl)-1-(pyridin-4-ylmethyl)-2,3,3a,4,5,9b-hexahydro-1H-pyrrolo[3,2-c]quinolin-4-yl)methanol], for which the inhibition at 5 µM in experiment [1] is 50%. The LW in experiment [2] ([Protein:RNA] 0 μM) was 4.1 Hz; in experiment [2] ([Protein:RNA] 0.75 μM), 4.3 Hz; in experiment [2] ([Protein:RNA] 1.0 μM), 4.6 Hz; in experiment [2] ([Protein:RNA] 1.25 μM) it was 5.3 Hz; in experiment [2] ([Protein:RNA] 1.5 μM), 5.9 Hz; in experiment [2] ([Protein:RNA] 1.75 μM) it was 6.3 Hz. Besides, the “Peak Area” value in experiment [2] ([Protein:RNA] 0 μM) is on record as 3151271.718; in experiment [2] ([Protein:RNA] 0.75 μM), 2968891.536; in experiment [2] ([Protein:RNA] 1.0 μM) it was 2999269.636; in experiment [2] ([Protein:RNA] 1.25 μM) it was 2964107.303; in experiment [2] ([Protein:RNA] 1.5 μM), 3176044.761; in experiment [2] ([Protein:RNA] 1.75 μM), 3020022.312. Also, the “Peak Intensity” value is given as 572470.95 in experiment [2] ([Protein:RNA] 0 μM); 497630.81 in experiment [2] ([Protein:RNA] 0.75 μM); 468481.06 in experiment [2] ([Protein:RNA] 1.0 μM); 398322.72 in experiment [2] ([Protein:RNA] 1.25 μM); 375769.97 in experiment [2] ([Protein:RNA] 1.5 μM); 342640.49 in experiment [2] ([Protein:RNA] 1.75 μM). Moreover, the “Fractional Occupancy” value in experiment [2] ([Protein:RNA] 0 μM, 1-Ibound/I0) was 0.
